Assay results as given in ChEMBL document CHEMBL6071181, “Discovery of ZLC491 as a Potent, Selective, and Orally Bioavailable CDK12/13 PROTAC Degrader” (J Med Chem, 2024).
The source made the active and inactive calls.

Legend:
[1] = target: T1, Protein cereblon/Cyclin-dependent kinase 13 (Homo sapiens) (UniProt Q14004+Q96SW2); assay: In vivo PROTAC activity at CRBN/CDK13 in female CB17SCID mouse model xenografted with human MDA-MB-231 cells assessed as reduction in CDK13 protein expression in tumor at 100 to 200 mg/kg, po administered for 5 days by immunoblotting analysis; assay type: functional, organism-based; details: dose 100-200 mg/kg, time 5.0 day
[2] = Antiproliferative activity against HEK293 cells assessed as inhibition of cell growth incubated for 5 days by CCK8 assay; assay type: toxicity, cell-based; details: human
[3] = target: T2, Protein cereblon/Cyclin-dependent kinase 12 (Homo sapiens) (UniProt Q9NYV4+Q96SW2); assay: PROTAC activity at CRBN/CDK12 in human HCC38 cells assessed as induction of CDK12 degradation incubated for 15 hrs by immunoblotting analysis; assay type: cell-based; details: dose 0.01-3 µM
MDA-MB-231 [4] = assay: Synergistic antiproliferative activity against human MDA-MB-231 cells assessed as combination index at 7.5 uM incubated for 5 days in presence of olaparib by CCK8 assay; assay type: functional; details: time 5 day
[5] = target: T1, Protein cereblon/Cyclin-dependent kinase 13 (Homo sapiens); assay: PROTAC activity at CRBN/CDK13 in human MDA-MB-231 cells assessed as induction of CDK13 degradation incubated for 15 hrs by immunoblotting analysis; assay type: cell-based
[6] = target: T1, Protein cereblon/Cyclin-dependent kinase 13 (Homo sapiens); assay: PROTAC activity at CRBN/CDK13 in human MDA-MB-436 cells assessed as induction of CDK13 degradation incubated for 15 hrs by immunoblotting analysis; assay type: cell-based; details: dose 0.01-3 µM
MDA-MB-231 [7] = assay: Downregulation of RAD51 protein level in human MDA-MB-231 cells at 0.1 to 0.5 uM incubated for 48 hrs by immunoblotting analysis; assay type: functional, cell-based; details: dose 0.1-0.5 µM
[8] = Antiproliferative activity against human MRC5 cells assessed as inhibition of cell growth incubated for 5 days by CCK8 assay; assay type: toxicity, cell-based
MDA-MB-231 [9] = assay: Synergistic antiproliferative activity against human MDA-MB-231 cells assessed as combination index at 1.5 uM incubated for 5 days in presence of olaparib by CCK8 assay; assay type: functional; details: time 5 day
MDA-MB-231 [10] = assay: Downregulation of BRCA1 protein level in human MDA-MB-231 cells at 0.1 to 0.5 uM incubated for 48 hrs by immunoblotting analysis; assay type: functional, cell-based; details: dose 0.1-0.5 µM
[11] = target: T1, Protein cereblon/Cyclin-dependent kinase 13 (Homo sapiens); assay: PROTAC activity at CRBN/CDK13 in human MDA-MB-231 cells assessed as induction of CDK13 degradation at 1 uM pretreated with bafilomycin followed by compound addition and measured after 10 hrs by immunoblotting analysis; assay type: cell-based
[12] = target: T1, Protein cereblon/Cyclin-dependent kinase 13 (Homo sapiens); assay: PROTAC activity at CRBN/CDK13 in human MDA-MB-231 cells assessed as induction of CDK13 degradation at 1 uM pretreated with MG132 followed by compound addition and measured after 10 hrs by immunoblotting analysis; assay type: cell-based
MDA-MB-231 [13] = assay: Downregulation of FANCD2 mRNA expression in human MDA-MB-231 cells incubated for 12 hrs by RT-qPCR analysis; assay type: functional, cell-based; details: dose 60-300 nM
[14] = target: T2, Protein cereblon/Cyclin-dependent kinase 12 (Homo sapiens); assay: PROTAC activity at CRBN/CDK12 in human MDA-MB-231 cells assessed as induction of CDK12 degradation at 1 uM pretreated with MLN4924 followed by compound addition and measured after 10 hrs by immunoblotting analysis; assay type: cell-based
[15] = target: T2, Protein cereblon/Cyclin-dependent kinase 12 (Homo sapiens); assay: PROTAC activity at CRBN/CDK12 in human MDA-MB-231 cells assessed as induction of CDK12 degradation at 1 uM pretreated with MG132 followed by compound addition and measured after 10 hrs by immunoblotting analysis; assay type: cell-based
MDA-MB-231 [16] = assay: Downregulation of BRCA2 mRNA expression in human MDA-MB-231 cells incubated for 12 hrs by RT-qPCR analysis; assay type: functional, cell-based; details: dose 60-300 nM
[17] = target: T2, Protein cereblon/Cyclin-dependent kinase 12 (Homo sapiens); assay: PROTAC activity at CRBN/CDK12 in human MDA-MB-231 cells assessed as induction of CDK12 degradation at 1 uM by immunoblotting analysis; assay type: cell-based; details: time <= 24.0 hrs, TDE = time-dependent effect
[18] = target: T1, Protein cereblon/Cyclin-dependent kinase 13 (Homo sapiens); assay: PROTAC activity at CRBN/CDK13 in human MDA-MB-231 cells assessed as induction of CDK13 degradation at 1 uM pretreated with MLN4924 followed by compound addition and measured after 10 hrs by immunoblotting analysis; assay type: cell-based
MDA-MB-231 [19] = assay: Synergistic antiproliferative activity against human MDA-MB-231 cells assessed as combination index at 0.3 uM incubated for 5 days in presence of cisplatin by CCK8 assay; assay type: functional; details: time 5 day
[20] = target: T2, Protein cereblon/Cyclin-dependent kinase 12 (Homo sapiens); assay: PROTAC activity at CRBN/CDK12 in human MDA-MB-231 cells assessed as induction of CDK12 degradation at 1 uM pretreated with 3-benzyl-1-((1r,4r)-4-((5-cyanopyridin-2-yl)amino)cyclohexyl)-1-(4-(piperazin-1-yl)phenyl)urea followed by compound addition and measured after 10 hrs by immunoblotting analysis; assay type: cell-based
[21] = target: T2, Protein cereblon/Cyclin-dependent kinase 12 (Homo sapiens); assay: PROTAC activity at CRBN/CDK12 in human MDA-MB-231 cells assessed as induction of CDK12 degradation at 1 uM pretreated with pomalidomide followed by compound addition and measured after 10 hrs by immunoblotting analysis; assay type: cell-based
[22] = target: T1, Protein cereblon/Cyclin-dependent kinase 13 (Homo sapiens); assay: PROTAC activity at CRBN/CDK13 in human MDA-MB-231 cells assessed as induction of CDK13 degradation at 1 uM pretreated with 3-benzyl-1-((1r,4r)-4-((5-cyanopyridin-2-yl)amino)cyclohexyl)-1-(4-(piperazin-1-yl)phenyl)urea followed by compound addition and measured after 10 hrs by immunoblotting analysis; assay type: cell-based
MDA-MB-231 [23] = assay: Synergistic antiproliferative activity against human MDA-MB-231 cells assessed as combination index at 0.3 uM incubated for 5 days in presence of olaparib by CCK8 assay; assay type: functional; details: time 5 day
MDA-MB-231 [24] = assay: Downregulation of ATR mRNA expression in human MDA-MB-231 cells incubated for 12 hrs by RT-qPCR analysis; assay type: functional, cell-based; details: dose 60-300 nM
MDA-MB-231 [25] = assay: Downregulation of BRCA1 mRNA expression in human MDA-MB-231 cells incubated for 12 hrs by RT-qPCR analysis; assay type: functional, cell-based; details: dose 60-300 nM
[26] = target: T2, Protein cereblon/Cyclin-dependent kinase 12 (Homo sapiens); assay: In vivo PROTAC activity at CRBN/CDK12 in female CB17SCID mouse model xenografted with human MDA-MB-231 cells assessed as reduction in CDK12 protein expression in tumor at 100 to 200 mg/kg, po administered for 5 days by immunoblotting analysis; assay type: functional, organism-based; details: dose 100-200 mg/kg, time 5.0 day
[27] = target: T1, Protein cereblon/Cyclin-dependent kinase 13 (Homo sapiens); assay: PROTAC activity at CRBN/CDK13 in human MDA-MB-231 cells assessed as induction of CDK13 degradation at 2 uM by […] proteomic analysis; assay type: cell-based
MDA-MB-231 [28] = assay: Downregulation of ATM mRNA expression in human MDA-MB-231 cells incubated for 12 hrs by RT-qPCR analysis; assay type: functional, cell-based; details: dose 60-300 nM
MDA-MB-231 [29] = assay: Synergistic antiproliferative activity against human MDA-MB-231 cells assessed as combination index at 1.5 uM incubated for 5 days in presence of cisplatin by CCK8 assay; assay type: functional; details: time 5 day
MDA-MB-231 [30] = assay: Induction of CCNK degradation in human MDA-MB-231 cells at 2 uM incubated for 8 hrs by global proteomic analysis; assay type: cell-based
[31] = target: T2, Protein cereblon/Cyclin-dependent kinase 12 (Homo sapiens); assay: PROTAC activity at CRBN/CDK12 in human MDA-MB-436 cells assessed as induction of CDK12 degradation incubated for 15 hrs by immunoblotting analysis; assay type: cell-based; details: dose 0.01-3 µM

T2 sequence (Q96SW2 whole entry, looked up): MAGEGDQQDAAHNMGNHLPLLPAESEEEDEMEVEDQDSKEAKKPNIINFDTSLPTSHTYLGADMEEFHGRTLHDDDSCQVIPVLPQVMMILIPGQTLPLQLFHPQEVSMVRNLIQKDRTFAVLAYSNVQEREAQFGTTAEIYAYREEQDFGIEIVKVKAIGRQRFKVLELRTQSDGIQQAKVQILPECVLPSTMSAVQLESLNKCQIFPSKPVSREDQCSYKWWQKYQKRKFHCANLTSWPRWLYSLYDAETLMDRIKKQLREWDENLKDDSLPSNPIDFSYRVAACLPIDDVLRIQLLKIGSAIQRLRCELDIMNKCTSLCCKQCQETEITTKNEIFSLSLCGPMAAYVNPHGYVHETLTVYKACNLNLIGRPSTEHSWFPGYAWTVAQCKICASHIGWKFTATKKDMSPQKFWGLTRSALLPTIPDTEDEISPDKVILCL
T2 sequence (Q9NYV4 whole entry, looked up): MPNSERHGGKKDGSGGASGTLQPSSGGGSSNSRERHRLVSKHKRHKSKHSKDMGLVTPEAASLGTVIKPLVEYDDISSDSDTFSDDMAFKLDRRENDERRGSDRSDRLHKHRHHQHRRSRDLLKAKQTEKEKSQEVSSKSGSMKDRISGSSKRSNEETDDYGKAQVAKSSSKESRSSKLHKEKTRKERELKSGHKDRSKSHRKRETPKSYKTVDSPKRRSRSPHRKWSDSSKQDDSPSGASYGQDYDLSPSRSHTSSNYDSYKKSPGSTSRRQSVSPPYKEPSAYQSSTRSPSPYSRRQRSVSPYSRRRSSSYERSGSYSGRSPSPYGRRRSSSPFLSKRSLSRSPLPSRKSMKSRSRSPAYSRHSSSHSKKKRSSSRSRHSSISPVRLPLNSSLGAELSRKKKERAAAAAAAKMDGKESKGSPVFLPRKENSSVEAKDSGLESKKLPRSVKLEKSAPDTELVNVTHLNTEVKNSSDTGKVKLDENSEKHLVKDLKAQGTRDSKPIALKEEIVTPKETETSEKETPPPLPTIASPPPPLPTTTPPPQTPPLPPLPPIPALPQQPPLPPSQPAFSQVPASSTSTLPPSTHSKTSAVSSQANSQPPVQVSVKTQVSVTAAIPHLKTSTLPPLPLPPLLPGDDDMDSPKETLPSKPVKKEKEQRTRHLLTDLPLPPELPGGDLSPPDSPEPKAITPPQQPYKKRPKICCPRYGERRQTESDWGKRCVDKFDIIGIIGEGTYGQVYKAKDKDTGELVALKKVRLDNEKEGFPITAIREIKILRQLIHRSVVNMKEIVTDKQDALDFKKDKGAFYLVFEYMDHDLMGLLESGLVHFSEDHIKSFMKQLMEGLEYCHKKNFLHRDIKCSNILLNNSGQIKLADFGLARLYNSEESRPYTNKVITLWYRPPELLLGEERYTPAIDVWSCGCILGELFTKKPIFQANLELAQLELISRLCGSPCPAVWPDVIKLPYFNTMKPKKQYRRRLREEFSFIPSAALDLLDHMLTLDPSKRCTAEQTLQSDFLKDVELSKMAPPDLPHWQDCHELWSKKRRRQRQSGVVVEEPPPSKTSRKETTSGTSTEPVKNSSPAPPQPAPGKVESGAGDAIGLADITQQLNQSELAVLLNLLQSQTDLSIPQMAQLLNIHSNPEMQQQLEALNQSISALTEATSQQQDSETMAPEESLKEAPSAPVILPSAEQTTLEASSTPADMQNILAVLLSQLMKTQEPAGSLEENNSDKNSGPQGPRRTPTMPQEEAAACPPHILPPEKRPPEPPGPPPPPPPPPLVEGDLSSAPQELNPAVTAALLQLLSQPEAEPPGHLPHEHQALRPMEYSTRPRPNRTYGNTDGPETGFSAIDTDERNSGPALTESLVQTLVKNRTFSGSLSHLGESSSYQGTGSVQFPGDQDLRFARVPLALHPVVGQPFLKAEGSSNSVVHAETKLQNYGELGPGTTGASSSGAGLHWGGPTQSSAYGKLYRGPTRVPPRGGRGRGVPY
T1 sequence (Q14004 whole entry, looked up): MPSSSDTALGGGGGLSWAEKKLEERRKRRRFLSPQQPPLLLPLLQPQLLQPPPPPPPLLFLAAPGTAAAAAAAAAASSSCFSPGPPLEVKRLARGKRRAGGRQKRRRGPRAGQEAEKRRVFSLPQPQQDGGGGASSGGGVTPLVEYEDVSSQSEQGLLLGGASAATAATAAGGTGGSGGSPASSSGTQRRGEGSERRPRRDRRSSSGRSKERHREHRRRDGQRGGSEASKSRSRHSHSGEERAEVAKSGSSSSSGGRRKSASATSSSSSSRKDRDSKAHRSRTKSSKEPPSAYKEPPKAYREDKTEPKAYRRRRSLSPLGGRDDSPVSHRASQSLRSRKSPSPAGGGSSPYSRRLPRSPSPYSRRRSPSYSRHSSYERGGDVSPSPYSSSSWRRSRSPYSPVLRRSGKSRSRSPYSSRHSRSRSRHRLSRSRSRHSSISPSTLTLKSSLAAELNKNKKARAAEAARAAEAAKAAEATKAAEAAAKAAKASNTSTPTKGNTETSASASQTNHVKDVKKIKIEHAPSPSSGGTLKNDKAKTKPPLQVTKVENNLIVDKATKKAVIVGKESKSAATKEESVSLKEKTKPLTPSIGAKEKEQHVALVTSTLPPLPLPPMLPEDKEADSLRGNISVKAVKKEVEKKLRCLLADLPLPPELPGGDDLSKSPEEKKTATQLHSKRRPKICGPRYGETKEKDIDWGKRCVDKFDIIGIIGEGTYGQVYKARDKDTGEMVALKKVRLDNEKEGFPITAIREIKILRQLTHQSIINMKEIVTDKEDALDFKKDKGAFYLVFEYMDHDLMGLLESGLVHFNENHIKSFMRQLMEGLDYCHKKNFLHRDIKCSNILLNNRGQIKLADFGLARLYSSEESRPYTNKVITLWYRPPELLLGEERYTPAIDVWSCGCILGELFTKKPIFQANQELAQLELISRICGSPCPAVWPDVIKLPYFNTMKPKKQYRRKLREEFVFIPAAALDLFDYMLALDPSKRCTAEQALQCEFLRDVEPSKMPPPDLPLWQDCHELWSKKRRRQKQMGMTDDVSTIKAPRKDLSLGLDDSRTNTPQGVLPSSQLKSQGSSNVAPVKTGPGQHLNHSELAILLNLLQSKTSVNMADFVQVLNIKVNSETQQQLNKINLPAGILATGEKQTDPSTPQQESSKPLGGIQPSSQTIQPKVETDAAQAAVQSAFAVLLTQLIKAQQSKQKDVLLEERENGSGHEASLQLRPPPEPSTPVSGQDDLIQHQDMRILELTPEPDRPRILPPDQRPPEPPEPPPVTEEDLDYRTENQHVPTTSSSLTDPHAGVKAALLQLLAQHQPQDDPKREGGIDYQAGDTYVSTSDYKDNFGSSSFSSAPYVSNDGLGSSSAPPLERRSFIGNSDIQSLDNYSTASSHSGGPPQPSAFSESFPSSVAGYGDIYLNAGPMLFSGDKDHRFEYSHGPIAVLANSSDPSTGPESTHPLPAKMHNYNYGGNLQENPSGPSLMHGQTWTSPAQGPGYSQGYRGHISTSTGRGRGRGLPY
T1 sequence (Q96SW2 whole entry, looked up): as the sequence (Q96SW2 whole entry, looked up) above

N#Cc1ccc(N[C@H]2CC[C@H](N(C(=O)NCc3ccccc3)c3ccc(N4CCN(C5CCN(c6cc7c(cc6F)C(=O)N(C6CCC(=O)NC6=O)C7=O)CC5)CC4)cc3)CC2)nc1 (stereo partly specified)
> 10 µM: IC50 at 5 days [2] | IC50 at 5 days [8]
active: Activity [1] | Activity [3] Dose-Dependent Effect | Activity [5] Dose-Dependent Effect | Activity [6] Dose-Dependent Effect | Activity (MDA-MB-231 [7]) | Activity (MDA-MB-231 [10]) | Activity [11] | Activity (MDA-MB-231 [13]) Dose-Dependent Effect | Activity (MDA-MB-231 [16]) Dose-Dependent Effect | Activity [17] Tde | Activity (MDA-MB-231 [24]) Dose-Dependent Effect | Activity (MDA-MB-231 [25]) Dose-Dependent Effect | Activity [26] | Activity [27] | Activity (MDA-MB-231 [28]) Dose-Dependent Effect | Activity (MDA-MB-231 [30]) | Activity [31] Dose-Dependent Effect
inactive: Activity [12] | Activity [14] | Activity [15] | Activity [18] | Activity [20] | Activity [21] | Activity [22]
0.85: CI (MDA-MB-231 [4])
0.17: CI (MDA-MB-231 [29])
>1: CI (MDA-MB-231 [19]) | CI (MDA-MB-231 [23])
0.9: CI (MDA-MB-231 [9])
